Data as given in PubChem BioAssay (NCI).
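Cultured in 96-well plates, cells were exposed to test compound for 48 hours across five concentrations. GI50: concentration for 50% inhibition of growth. TGI: total growth inhibition.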

Legend:
Experiment in all cases: inhibition of tumour cell growth, NCI panel, 48 h
HCC-2998 colon = system: HCC-2998 colon
HL-60(TB) leukemia = system: HL-60(TB) leukemia
SN12C renal = system: SN12C renal
HS 578T breast = system: HS 578T breast
UO-31 renal = system: UO-31 renal
HT29 colon = system: HT29 colon
COLO 205 colon = system: COLO 205 colon
NCI/ADR-RES ovarian = system: NCI/ADR-RES ovarian
SK-MEL-2 melanoma = system: SK-MEL-2 melanoma
OVCAR-5 ovarian = system: OVCAR-5 ovarian

| Compound | GI50 (HCC-2998 colon) | TGI (HCC-2998 colon) | GI50 (HL-60(TB) leukemia) | TGI (HL-60(TB) leukemia) | GI50 (SN12C renal) | TGI (SN12C renal) | GI50 (HS 578T breast) | TGI (HS 578T breast) | GI50 (UO-31 renal) | TGI (UO-31 renal) | GI50 (HT29 colon) | TGI (HT29 colon) | GI50 (COLO 205 colon) | TGI (COLO 205 colon) | GI50 (NCI/ADR-RES ovarian) | TGI (NCI/ADR-RES ovarian) | GI50 (SK-MEL-2 melanoma) | TGI (SK-MEL-2 melanoma) | GI50 (OVCAR-5 ovarian) | TGI (OVCAR-5 ovarian) |
| --- | --- | --- | --- | --- | --- | --- | --- | --- | --- | --- | --- | --- | --- | --- | --- | --- | --- | --- | --- | --- |
| CCCCCNC(=O)[C@@H]1CCCN2C(=O)CC[C@H](NC(=O)[C@H](Cc3ccc(OP(=O)(O)O)cc3)NC(C)=O)C(=O)N12 | > 25 µM | > 25 µM | > 25 µM | > 25 µM | > 25 µM | > 25 µM | > 25 µM | > 25 µM | > 25 µM | > 25 µM | > 25 µM | > 25 µM | > 25 µM | > 25 µM | > 25 µM | > 25 µM | > 25 µM | > 25 µM | > 25 µM | > 25 µM |
| CCN(CC)CCOc1ccc(Nc2ncc3cc(-c4ccc(O)cc4)c(=O)n(C)c3n2)cc1 | 15.4 µM | 30.5 µM | 14.6 µM | 40.3 µM | 0.212 µM | 21.2 µM | 0.274 µM | 19.8 µM | 0.0396 µM | 1.6 µM | 0.379 µM | 2.79 µM | 1.59 µM | 17.2 µM | 12.7 µM | 41.5 µM | 18.9 µM | 39.5 µM | 10.7 µM | 30.8 µM |
| c1ccc2[nH]c(SSc3nc4ncncc4[nH]3)nc2c1 | 1.9 µM | > 100 µM | 0.71 µM | > 100 µM | 5.38 µM | > 100 µM | 8.92 µM | > 100 µM | 0.559 µM | > 30.9 µM | 2.58 µM | > 100 µM | 2.59 µM | 10.2 µM | 1.74 µM | > 100 µM | 2.72 µM | > 100 µM | 13 µM | > 100 µM |
| O=C(Nc1ccc(-n2cc(-c3ccncc3)c(-c3ccc(Cl)c(O)c3)n2)cc1)Nc1cc(C(F)(F)F)cc(C(F)(F)F)c1 | 1.79 µM | 3.37 µM | 2.94 µM | 8.84 µM | 2.03 µM | 7.57 µM | 2.04 µM | 6.59 µM | 1.55 µM | 3.93 µM | 1.95 µM | 3.74 µM | 1.2 µM | 2.81 µM | 2.22 µM | 5.6 µM | 1.8 µM | 3.45 µM | 2.26 µM | 7.21 µM |
| COc1cc(Cl)cc(-c2nn(C(=O)NCCN3CCN(C)CC3)cc2-c2ccncc2)c1 | 17.5 µM | 39.1 µM | 25.6 µM | 75.8 µM | 10.6 µM | > 100 µM | 4.96 µM | 32.9 µM | 11.6 µM | 62 µM | 3.32 µM | 72.1 µM | 9.86 µM | 60.9 µM | 19.8 µM | 88.5 µM | 19.3 µM | 46 µM | 17.9 µM | 68.2 µM |
| O=[N+]([O-])c1ccc(-c2nc(N(CCO)CCO)c3ccccc3n2)o1 | 0.194 µM | 0.442 µM | 0.311 µM | 2.91 µM | 0.292 µM | 7.72 µM | 0.346 µM | 1.99 µM | 0.213 µM | 0.714 µM | 0.184 µM | 3.07 µM | 0.118 µM | 0.264 µM | 0.956 µM | 7.57 µM | 0.158 µM | 0.361 µM | 0.562 µM | 5.1 µM |
| C=C(Cl)COC(=O)Nc1cccc(Cl)c1 | – | > 100 µM | – | 94.6 µM | – | > 100 µM | – | > 100 µM | – | 44.9 µM | – | > 100 µM | – | > 100 µM | – | 99.7 µM | – | 58.5 µM | – | > 100 µM |
| CN(NC(=O)CC(=O)NN(C)C(=S)c1ccccc1)C(=S)c1ccccc1 | – | > 100 µM | > 70.7 µM | > 100 µM | > 100 µM | > 100 µM | 19.2 µM | > 100 µM | 14.6 µM | > 89.6 µM | – | > 100 µM | – | > 100 µM | 55.3 µM | > 100 µM | 8.77 µM | > 100 µM | – | > 100 µM |
| Cn1ccc2c(NCCN)c3c(c(NCCN)c21)C(=O)c1ccccc1C3=O | 1.64 µM | 3.99 µM | 2.91 µM | 64.1 µM | 0.465 µM | 1.61 µM | 1.84 µM | 5.26 µM | 1.52 µM | 5.76 µM | 7.77 µM | > 44.8 µM | 24.4 µM | 68.4 µM | 8.04 µM | 26.7 µM | 2.33 µM | 11.5 µM | 2.78 µM | 12 µM |
